# Patent US5458874A, “Method of increasing monocyte chemotaxis with CAP37 and monocyte chemotactic portions thereof” (Emory University, priority 1992, dated 1995)
# “Also recorded” adds a separate entry of the source. Like-named read-outs stand apart in the source and are kept apart here.
# Legend:
# [1] = system: Salmonella typhimurium SH9178; experiment: Bactericidal assay; type: cell-based; details: for bactericidal effect on Salmonella typhimurium SH9178 (in words): FIGS. 12, 13, 15, 1 hour at 37° C.; for % survival with peptide 20-44: Salmonella SH9178
# Protocol: (§1) An overnight culture of Salmonella typhimurium (or other microorganism of interest, if desired) is set up by inoculating one colony in 5 ml of LB Broth (LB Broth consists of 10 g BACTO tryptone (DIFCO), 5 g BACFO yeast (DIFCO) and 5 g NaCl made up to 1 L with endotoxin free water; add 15 g of BACTO agar (DIFCO) to this broth to make LB agar (autoclave). The culture is incubated at 37° C. with rotation. 100 μl of this overnight culture is then transferred to 5 ml of fresh LB Broth and incubated at 37° C. with rotation for 2 hours. Four ml of this log phase culture is then transferred to a sterile cuvette and the optical density is read at […]. Dilutions of the microorganism are then made in tryptone saline (5 g BAOTO tryptone (DIFCO) and 5 g NaCl made up to 1 L with endotoxin free water, pH 5.5) to give a final concentration of 5×10^3 organisms/ml (an O.D. reading of 0.25 at 520 mm is equivalent to 1×10^8 organisms/ml). The microorganisms are placed at 4° C. until ready to be used.
# (§2) The stock solutions of peptides are stored at -20° C. at concentrations of 1 mg/ml of endotoxin-free water. The peptide is diluted out in tryptone saline to the desired concentration. 100 μl of the peptide is added to each well of the microtitre plate (Corning) and then 100 μl of the bacterial suspension (well vortexed) is added. Each assay point is set up in triplicate. 100 μl of a control, consisting of bacteria and tryptone saline (T=0) in the absence of peptide is plated out on LB agar plates. The microliter plate is then incubated at 37° C. for 1 hour. At the end of the incubation time, 100 μl of each sample is plated out on LB agar plates. The T=60 control (consisting of bacteria and tryptone saline in the absence of peptide) is plated out last. The plates are incubated overnight, and the number of colony forming units (CFU) are determined.
# (§3) The % killed is determined as follows: [formula]
# human monocytes = experiment: Monocyte chemotaxis, modified Boyden chamber technique; type: cell-based; details: chemoattractant conc. 10^-8 M
# Protocol: Chemotaxis was measured using the modified Boyden chamber technique (Snyderman et al.). The leading front method (Zigmond et al.) was used to assess migration of monocytes and lymphocytes through a 8 μm filter (Millipore Corporation, Bedford, Mass.). PMN chemotaxis was measured using a 3 μm filter (Millipore). The purified CAP37 protein (Example 1) used in chemotaxis assays were endotoxin-free as determined by the Limulus Amoebocyte Lysate Assay (Whittaker Bioproducts, Inc., Walkersville, Md.). The dilutions of CAP37 and N-formyl-methionyl-leucyl-phenylalanine (FMLP) were made in Geys buffer (Gibco) containing 2% endotoxin-free bovine serum albumin (BSA). Geys buffer containing 2% BSA served as the negative control, and a […] solution of FMLP as the positive control.
# The chambers were incubated in a humidified atmosphere (6.2% CO2) for 2 hours when testing monocytes and lymphocytes, and for 30 minutes when testing PMNs. The filters were then removed and processed as previously described (Snyderman et al.). The cells were viewed using oil immersion and the distance the cells had migrated into the filter was determined over five different fields on the same slide (Zigmond et al.). Triplicate assays were performed for each experimental point.
# The three peptides were tested for chemotactic activity towards monocytes using the modified Boyden Chamber technique described in Example 2. The monocyte chemotactic activity of each peptide fragment at concentrations ranging from 10^-7 to 10^-13 M was compared with Geys buffer (negative control), FMLP 10^-8 M (positive control) and purified CAP37 10^-9 M (positive control). […] The effect of peptide 1 on monocyte chemotaxis is illustrated in Table 2 while the effect of peptide 3 on monocyte chemotaxis is illustrated in Table 3.
# Salmonella SH7426 = experiment: Bactericidal assay; type: cell-based
# Protocol: as §1, §2, §3
# E. faecalis = experiment: Bactericidal assay; type: cell-based, Enterococcus faecalis
# Protocol: as §1, §2, §3
# [2] = system: Salmonella typhimurium SH9178; experiment: Inhibition of the bactericidal effect by LPS and Lipid A; type: cell-based; details: peptide at 200 μg/ml, FIG. 16
# Protocol: To identity, those peptides derived from CAP37 having bacterial LPS-binding activity, the peptide fragments having bactericidal activity were tested to ascertain whether LPS or Lipid A inhibited that activity.
# Salmonella SH7518 = experiment: Bactericidal assay; type: cell-based, Salmonella typhimurium; details: for % survival with peptide 20-44: Salmonella SH7518
# Protocol: as §1, §2, §3
# Salmonella LT2 = experiment: Bactericidal assay; type: cell-based, Salmonella typhimurium; details: for % survival with peptide 20-44: Salmonella LT2; for bactericidal activity (in words): Salmonella typhimurium LT2
# Protocol: as §1, §2, §3
# Re LPS from Salmonella = experiment: Neutralization of LPS activity, limulus amebocyte lysate (LAL) assay, Re LPS; type: biochemical
# Protocol: (§4) Further, the neutralization of LPS activity, as assayed by the limulus amebocyte lysate (LAL) assay, by CAP37 was measured. CAP37 was diluted to the desired concentrations (from 6.2 ng/ml to 500 ng/ml) in geys buffered saline pH 7 (GIBCO). To this wild type LPS (RIBI IMMUNOCHEM) or Re LPS from Salmonella (David Morrison, Kansas Medical Center) was added so that the final concentrations were 0.1, 0.5, 1.0 and 2.0 ng/ml LPS. The tubes were incubated at 37° C. for between 30 to 60 minutes and then assayed in the chromogenic LAL assay, using polymyxin E as a control.
# (§5) As discussed in Example 11, peptides can be screened for lipopolysaccharide neutralizing capacity using the LAL assay also. The CAP37 peptide was diluted to the desired concentrations (from 125 ng/ml to 4000 ng/ml) in geys buffered saline pH 7 (GIBCO). To this is added the wild type LPS (RIBI IMMUNOCHEM) or Re LPS from Salmonella (David Morrison, Kansas Medical Center) so that the final concentration is 0.1, 0.5, and 1.0 ng/ml LPS. The tubes were incubated at 37° C. for between 30 to 60 minutes and then assayed in the chromogenic LAL assay.
# L monocytogenes = experiment: Bactericidal assay; type: cell-based, Listeria monocytogenes
# Protocol: as §1
# (§6) The stock solutions of peptides are stored at -20° C. at concentrations of 1 mg/ml of endotoxin-free water. The peptide is diluted out in tryptone saline to the desired concentration. […] The plates are incubated overnight, and the number of colony forming units (CFU) are determined.
# as §3
# Strep. pyogenes = experiment: Bactericidal assay; type: cell-based, Streptococcus pyogenes
# Protocol: as §1, §6, §3
# S. aureus 502A = experiment: Bactericidal assay; type: cell-based, Staphylococcus aureus
# Protocol: as §1, §6, §3
# E. coli = experiment: Bactericidal assay; type: cell-based, Escherichia coli
# Protocol: as §1, §2, §3
# [3] = system: gram negative and gram positive bacteria; experiment: Bactericidal assay, assortment of bacteria (FIG. 14); type: cell-based
# Protocol: as §1, §6, §3
# P. mirabilis Re45 = experiment: Bactericidal assay; type: cell-based, Proteus mirabilis; details: for % survival with peptide 20-44: P. mirabilis Re45
# Protocol: as §1, §2, §3
# Ps. aeruginosa = experiment: Bactericidal assay; type: cell-based, Pseudomonas aeruginosa; details: for % survival with peptide 20-44: Ps. aeruginosa; for bactericidal activity (in words): Pseudomonas
# Protocol: as §1, §2, §3
# wild type LPS = experiment: Neutralization of LPS activity, limulus amebocyte lysate (LAL) assay, wild type LPS; type: biochemical
# Protocol: as §4, §5
compound,measurement,setting,value
"1-44aa: synthesized peptide fragment, amino acids 1-44 of the mature CAP37 protein (IVGGRKARPRQFPFLASIQNQGRHFCGGALIHARFVMTAASCFQ; UniProt P20160 27-70, looked up, fragment)",bactericidal effect on Salmonella typhimurium SH9178 (in words),[1],active but not to the same extent as peptide 20-44aa
"26-42aa: synthesized peptide fragment, amino acids 26-42 of the mature CAP37 protein (CGGALIHARFVMTAASC; UniProt P20160 52-68, looked up, fragment)",bactericidal effect on Salmonella typhimurium SH9178 (in words),[1],minimal activity
"CSCC[C@H](NC=O)C(=O)N[C@@H](CC(C)C)C(=O)N[C@@H](Cc1ccccc1)C(=O)O [FMLP, N-formyl-methionyl-leucyl-phenylalanine, reference compound]",Distance migrated in μm,human monocytes; Table 2,86.2 μm
same,Distance migrated in μm,human monocytes; Table 3,91.4 μm
"peptide 20-44aa: synthesized peptide fragment, amino acids 20-44 of the mature CAP37 protein (NQGRHFCGGALIHARFVMTAASCFQ)",% survival with peptide 20-44,Salmonella SH7426; 50 uM,62.5%
same,% survival with peptide 20-44,Salmonella SH7426; 75 uM,31.9%
same,% survival with peptide 20-44,[1]; 50 uM,36.9%
same,% survival with peptide 20-44,[1]; 75 uM,3.5%
same,bactericidal activity compared with cathepsin G and elastase peptides,"[1]; 100 and 125 μM, FIG. 15",very much more bactericidal
same,bactericidal effect on Salmonella typhimurium SH9178 (in words),[1],most potent antibiotic of these peptides; also recorded: Strongest activity; also recorded: extremely active
same,bactericidal effect on Salmonella typhimurium SH9178 (in words),[1]; listed as CAP37 peptide 20-44,most active
same,bactericidal activity (in words),E. faecalis,more active
same,% survival with peptide 20-44,E. faecalis; 50 uM,16.1%
same,% survival with peptide 20-44,E. faecalis; 75 uM,0%
same,bactericidal activity (in words),E. faecalis; listed as CAP37 peptide 20-44,most active
same,inhibition of the bactericidal effect by wild type LPS and Lipid A,[2],"wild type LPS, but more particularly Lipid A, can inhibit the bactericidal effect"
same,% survival with peptide 20-44,Salmonella SH7518; 50 uM,0.6%
same,% survival with peptide 20-44,Salmonella SH7518; 75 uM,0%
same,bactericidal activity (in words),Salmonella SH7518; Salmonella typhimurium SH7518,most active
same,% survival with peptide 20-44,Salmonella LT2; 50 uM,28.5%
same,% survival with peptide 20-44,Salmonella LT2; 75 uM,1.7%
same,bactericidal activity (in words),Salmonella LT2,more active
same,bactericidal activity (in words),Salmonella LT2; listed as CAP37 peptide 20-44,most active
same,neutralization of Re LPS activity (LAL assay),Re LPS from Salmonella,more dramatic
same,% survival with peptide 20-44,L monocytogenes; 50 uM,65.8%
same,% survival with peptide 20-44,L monocytogenes; 75 uM,64.6%
same,% survival with peptide 20-44,Strep. pyogenes; 50 uM,93.4%
same,% survival with peptide 20-44,Strep. pyogenes; 75 uM,78%
same,% survival with peptide 20-44,S. aureus 502A; 50 uM,58.7%
same,% survival with peptide 20-44,S. aureus 502A; 75 uM,27.5%
same,bactericidal activity (in words),E. coli,more active
same,% survival with peptide 20-44,E. coli; 50 uM,24.6%
same,% survival with peptide 20-44,E. coli; 75 uM,0%
same,bactericidal activity (in words),E. coli; listed as CAP37 peptide 20-44,most active
same,antibacterial activity against gram negative and gram positive bacteria (in words),[3],active against a wide assortment of bacteria
same,antibacterial activity against gram negative and gram positive bacteria (in words),[3]; listed as peptide 20-14aa,active against many other bacteria
same,% survival with peptide 20-44,P. mirabilis Re45; 50 uM,26.8%
same,% survival with peptide 20-44,P. mirabilis Re45; 75 uM,29%
same,bactericidal activity (in words),P. mirabilis Re45; Pr. mirabilis Re45,more active
same,% survival with peptide 20-44,Ps. aeruginosa; 50 uM,0%
same,% survival with peptide 20-44,Ps. aeruginosa; 75 uM,0%
same,bactericidal activity (in words),Ps. aeruginosa,more active
same,bactericidal activity (in words),Ps. aeruginosa; listed as CAP37 peptide 20-44,most active
same,neutralization of wild type LPS activity (LAL assay),wild type LPS,neutralizing its effect to a certain extent
